In patent US7951844B2, “Tranquilizer and functional food” (J-Oil Mills, Inc., priority 2007, dated 2011):
Structures can show the parent of a compound that is named as a salt.

Experiments:
fear-conditioned mice [1] = assay: fear condition-induced akinesia time (conditioned-fear measurement system); format: in vivo, mouse; conditions: for akinesia time (for every 60 seconds) compared to the control group, two-way analysis of variance: 30 mg/kg oral for 7 days, P<0.01 (menaquinone-4), P<0.05 (menaquinone-7); for akinesia time (% of freezing), period from 0 to 60 seconds / akinesia time (% of freezing), period from 180 to 240 seconds: male C57BL/6 mice, 30 mg/kg oral forced feeding for 7 days, measured 2 h after final administration, mean of 10 mice
Excerpt: A stimulus from the outside enters the brain through the sense organs, and is sent to the amygdaloid body and the hippocampus-lateral septum system, where it is judged if the stimulus is beneficial or harmful. (The judgment is referred to as “biological value evaluation”). The information that has been evaluated is stored in the amygdaloid body and the hippocampus. At the same time, biological response occurs, and biological response is visually recognized by an observer as emotional expression. A human and an animal learn (acquire) information on the biological value evaluation they gained through their experiences. When they receive the same stimulus, the stimulus is compared in the amygdaloid body and the hippocampus-lateral septum system. The response that occurs at the time is referred to as “conditioned emotional response”. Assume that a rat or mouse is put into a specified box and an electric stimulus it hates is applied to the rat or mouse. […] The akinesia is referred to as “condition-induced akinesia”. Currently, an animal model for evaluating anti-anxiety and anti-depression effects is widely used while using decrease of akinesia time as an index.
Whether the tranquilizer of the invention has a similar effect as a commercially-available anti-depressant was examined using said anxiety evaluation system. Specifically, fear-conditioned mice were fed through forced feeding a sample consisting of vitamin K and medium, or a control sample consisting of medium only, respectively, for 7 days. The effect of each sample was examined on the akinesia time of mice.
Menaquinone-4 and menaquinone-7 as vitamin K to be used as an active ingredient of an anti-anxiety agent of the invention were purchased from Wako Pure Chemical Industries, Ltd. After the given amounts of menaquinone-4 or menaquinone-7 were weighed, they were suspended in 0.5% MC so that a certain concentration is acquired. The control group was fed with only the medium (0.5% MC).
(§1) 10-week old male mice (C57BL/6NCrlCrlj, SPF grade) were purchased from Charles River Laboratories Japan. After 5-day quarantine period and subsequent 5-day acclimatization, weight measurement and observation of the general condition were conducted once a day.
A solid feed (ANG93G, Oriental Yeast Co., Ltd.) was placed in the feeder, and the mice were allowed to freely take the feed. The mice were allowed to freely drink water using a water bottle. The samples were orally administered through forced feeding in accordance specified method, using a disposable syringe made of polypropylene (manufactured by Terumo Corporation, Japan) attached with a disposable feeding needle for mouse (manufactured by Fuchigami kikai Ltd.). The sample was administered while it was stirred with a stirrer. The sample was administered so that the administration quantity of Vitamin K was 30 mg per kg in weight. The administration amount of liquid was calculated based on 10 ml/kg based using the weight on the date of administration.
(§2) The general conditions and death of a mouse were observed once a day before the administration. The weights were measured once a day before administration. A conditioned-fear measurement system (manufactured by ActiMetrics) was used for measuring electric stimulus and akinesia time. After the mice allocated to the individual groups were placed in the conditioned-fear measurement system, electric stimulus was applied for fear conditioning and the akinesia time was measured simultaneously. Electric stimulus of 0.3 mA for one second in every 15 seconds was applied for 240 seconds. Upon completion of the electric stimulus, the sample was administered to the mice. After 7-day administration, the mice in the control group (0.5% MC) and in the vitamin K-administered groups were placed again in the conditioned-fear measurement system at 2 hours or 2 hours and 1 minute after the final administration, and the akinesia time in 4 minutes was measured under the condition without electric stimulus being applied. […]

[2] = general conditions, death and weights during 7-day administration; format: in vivo, mouse; conditions: mice, 30 mg/kg oral for 7 days, compared with control group (0.5% MC)
Description: as §1
A solid feed (ANG93G, Oriental Yeast Co., Ltd.) was placed in the feeder, and the mice were allowed to freely take the feed. The mice were allowed to freely drink water using a water bottle. […] The sample was administered so that the administration quantity of Vitamin K was 30 mg per kg in weight. The administration amount of liquid was calculated based on 10 ml/kg based using the weight on the date of administration.
as §2, with “A conditioned-fear measurement system (manufactured by ActiMetrics) was used for measuring electric stimulus and akinesia time.” left out, “Electric stimulus of 0.3 mA for one second in every 15 seconds was applied for 240 seconds. Upon completion of the electric stimulus, the sample was administered to the mice.” left out

[3] = MK-7 originating from fermented soybeans taken, compared with MK-4 taken directly (Ozaki et al. 2006); cited from earlier work
fear-conditioned mice [4] = conditions: 7-day oral administration of 30 mg/kg; cited from earlier work

For CC(C)=CCC/C(C)=C/CC/C(C)=C/CC/C(C)=C/CC1=C(C)C(=O)c2ccccc2C1=O [menaquinone-4], the “akinesia time (for every 60 seconds) compared to the control group, two-way analysis of variance” value (fear-conditioned mice [1]) was “significant decreases in the akinesia time were observed”, the “akinesia time (% of freezing), period from 0 to 60 seconds” value (fear-conditioned mice [1]) was 31.99% and the “akinesia time (% of freezing), period from 180 to 240 seconds” value (fear-conditioned mice [1]) was 22.29%. For the same compound, the “weights through the administration period” value [2] was “remained substantially constant”.

For CC(C)=CCC/C(C)=C/CC/C(C)=C/CC/C(C)=C/CC/C(C)=C/CC/C(C)=C/CC/C(C)=C/CC1=C(C)C(=O)c2ccccc2C1=O [menaquinone-7], the “akinesia time (for every 60 seconds) compared to the control group, two-way analysis of variance” value (fear-conditioned mice [1]) was “significant decreases in the akinesia time were observed”, the “akinesia time (% of freezing), period from 0 to 60 seconds” value (fear-conditioned mice [1]) was 38.84% and the “akinesia time (% of freezing), period from 180 to 240 seconds” value (fear-conditioned mice [1]) was 20.83%. For the same compound, the “weights through the administration period” value [2] was “remained substantially constant” and the “MK-4 in the brain” value [3] was “increases in the brain more remarkably”.

In the case of CCN(CC)C(=O)C1(c2ccccc2)CC1CN (stereo not shown) [milnacipran hydrochloride], the condition-induced akinesia (fear-conditioned mice [4]) is given as “akinesia is alleviated”.
